This is an account of results in patent US20050058733A1, “Health food products” (Daicho Kikaku Incorporated Company, priority 2001, published 2005).

SMILES strings stand for the structures.

In one experiment the test system is adrenaline secretion. As to the kind of experiment: animal experiments using mice: secretomotory action on adrenaline, seen as blood glucose elevation. Type of experiment: in vivo. From the text: No studies have been conducted on the efficacy of curcumin, zingerone, or shogaol on the stimulation of adrenaline secretion.
Experiment [1] relates to patients with muscle disorders that occurred with aging. In words: tablets given to aged patients with muscle disorders (walking difficulties, proctoptosia, backaches, limb pains). To be noted: single regular dose of drugs admixed with one of the substances, without curcumin. Type of experiment: in vivo, human. The text has this:
In Western medicine, it has been understood that proctoptosia and leg, lumbus and arm aches are attributable only to hematogenous disorders and resultant inflammation at local sites. […] Thus, it can be understood that these disorders are attributed to insufficient communication of brain commands to local sites and therefore the hematogenous disorders and onset of inflammation are problems caused by abnormal motions of muscles due to incomplete communication of brain commands.

In the case of `CCCCC/C=C/C(=O)CCc1ccc(O)c(OC)c1` [shogaol, (6)-shogaol], the “blood glucose levels (secretomotory action on adrenaline)” value in the experiment on adrenaline secretion is recorded as “remarkably elevated”.
On the same count and under the same terms, the result for `COc1cc(CCC(C)=O)ccc1O` [zingerone] reads “remarkably elevated”.
The same measure, in the same setting: the result for `COc1cc(/C=C/C(=O)/C=C(O)/C=C/c2ccc(O)c(OC)c2)ccc1O` [curcumin] reads “remarkably elevated”.
As to `C[C@H](CCC(=O)O)[C@H]1CC[C@H]2[C@@H]3[C@H](O)C[C@@H]4C[C@H](O)CC[C@]4(C)[C@H]3C[C@H](O)[C@]12C` [cholic acid], the “amelioration of proctoptosia and leg, lumbus and arm aches” value in experiment [1] is given as “not significantly ameliorated”.
The same measure, in the same setting: the result for `C[C@H](CC[C@@H](O)C(CO)CO)C1CCC2C3C(C[C@H](O)[C@@]21C)[C@@]1(C)CC[C@@H](O)CC1C[C@H]3O` (some centres unmarked) [scymnol, Scymnol] reads “not significantly ameliorated”.
